Data reported in patent US12290513B2, “Therapeutic methods and compositions for treating movement disorders” (Vima Therapeutics, Inc., priority 2023, dated 2025).
pEC50: −log10 of the molar value.

What was measured:
[1] = human, in vivo
Protocol: Experimental Design: All of the data collected in this example were run in a double-blind, randomized, placebo controlled setting of normal healthy adults. […] Dizziness was measured by the visual analog scale (VAS), a common clinical measure of dizziness.

[2] = system: PCP (antagonist radioligand); conditions: at the tested concentration; negative values set to zero
[3] = target: M1 Muscarinic Receptor (Homo sapiens, UniProt P11229); assay: (S)-BTC titration on M1 in the presence of fixed (R)-THP concentrations; format: cell-based; conditions: with increasing concentration of (R)-THP (58.5, 195, 585 nM)
Protocol: All cells used in the following experiments were clonal populations of Chinese Hamster Ovary (CHO) cells stably expressing the corresponding human muscarinic receptor, except for the M4 cell line, which was a population of CHO cells transiently transfected with the human M4 receptor. […] The procedure was as follows: • 1. Cells were thawed and cultured in cell culture medium (DMEM/F12 containing 10% FBS, 1× penicillin-streptomycin and 600 μg/ml hygromycin B) at 37° C. in 5% (v/v) CO2. • 2. One day before the assays, cells were detached using TrypLE™ and counted using a cell-counter. […] 12,000 cells/well were seeded in 30 μl/well culture medium in a 384-well cell plate and incubated overnight at 37C, 5% (v/v) CO2. • 4. On the assay day, 2× dye solution was prepared following the manual of the FLIPR® Calcium 6 Assay Kit: • i. The dye was diluted with assay buffer (20 mM HEPES in 1× HBSS, PH 7.4); • ii. Probenecid was added to a final concentration of 5 mM; • iii. Cells were vortexed vigorously for 1-2 minutes. • 5. Medium was removed from the cell plate by flicking the cell plate on paper towels. • 6. 10 μl of assay buffer and 10 μl of 2× dye solution was added to each well of the cell plate. • 7. […] Plates were read for 160 sec with 1 sec intervals to obtain the data in agonist mode, then kept at 25° C. in the dark for 30 min. • 11.

[4] = target: human muscarinic receptor M1 (Homo sapiens, UniProt P11229); assay: cell-based
Protocol: (§1) All cells used in the following experiments were clonal populations of Chinese Hamster Ovary (CHO) cells stably expressing the corresponding human muscarinic receptor, except for the M4 cell line, which was a population of CHO cells transiently transfected with the human M4 receptor. […] The procedure was as follows: • 1. Cells were thawed and cultured in cell culture medium (DMEM/F12 containing 10% FBS, 1× penicillin-streptomycin and 600 μg/ml hygromycin B) at 37° C. in 5% (v/v) CO2. • 2. One day before the assays, cells were detached using TrypLE™ and counted using a cell-counter. […] 12,000 cells/well were seeded in 30 μl/well culture medium in a 384-well cell plate and incubated overnight at 37C, 5% (v/v) CO2. • 4. On the assay day, 2× dye solution was prepared following the manual of the FLIPR® Calcium 6 Assay Kit: • i. The dye was diluted with assay buffer (20 mM HEPES in 1× HBSS, PH 7.4); • ii. Probenecid was added to a final concentration of 5 mM; • iii. […] were vortexed vigorously for 1-2 minutes. • 5. Medium was removed from the cell plate by flicking the cell plate on paper towels. • 6. 10 μl of assay buffer and 10 μl of 2× dye solution was added to each well of the cell plate. • 7. The cell plate was shaken on a plate shaker at 600 rpm for 2 minutes and incubated at 37° C. for 2 hours followed by an additional 15-minute incubation at 25° C. • 8. The test compounds were next prepared in assay buffer: • a. All compounds were diluted to the required concentration with DMSO and added to a 384-well compound plate; • b. All compounds were serially diluted; • 1. Starting with 10 mM concentration of each test compound, all samples were serially diluted in 3-fold dilutions. • 2. 90 nl/well of each compound was transferred from the source plate to a 384-well compound plate using an Echo liquid handler. • 3. 30 μl/well assay buffer was added to the compound plate; • c. The plates were mixed on a plate shaker for 2 mins; • 9. The cell plate, compound plate and pipette tips were placed in the FLIPR screening system and 10 μl of each compound was added to a well of the cell plate. • 10. Plates were read for 160 sec with 1 sec intervals to obtain the data in agonist mode, then kept at 25° C. in the dark for 30 min. • 11.

[5] = target: human muscarinic receptor M3 (Homo sapiens, UniProt P20309); assay: cell-based
Protocol: as §1

Compound | share of exposure that is R-THP [1] | signal, PCP (antagonist radioligand) [2] | agonist effect of (S)-BTC toward the M1 muscarinic receptor [3] | pEC50 [4] | pEC50 [5]
O[C@@](CCN1CCCCC1)(c1ccccc1)C1CCCCC1 [(R)-THP, (R)-trihexyphenidyl] | 85% | 0.00% | – | – | –
C[C@@H](C[N+](C)(C)C)OC(N)=O.[Cl-] [(S)-BTC, (S)-bethanechol] | – | – | decreases substantially | 6.71 | 7.68
